Results reported in PubChem BioAssay (NCI).
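96-well plates; 48 h exposure; 5 concentrations. Endpoints by linear interpolation between flanking doses. Not reached: highest tested concentration assigned. At the TGI there is no net growth.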

Legend:
Experiment in all cases: NCI-60 cell line screen, 48 h
[1] = tested on: 786-0 renal
[2] = tested on: A498 renal
[3] = tested on: A549 NSCLC
[4] = tested on: ACHN renal
[5] = tested on: BT-549 breast
[6] = tested on: CAKI-1 renal
[7] = tested on: CCRF-CEM leukemia
[8] = tested on: COLO 205 colon
[9] = tested on: DU-145 prostate
[10] = tested on: EKVX NSCLC
[11] = tested on: HCC-2998 colon
[12] = tested on: HCT-116 colon
[13] = tested on: HCT-15 colon
[14] = tested on: HL-60(TB) leukemia
[15] = tested on: HOP-62 NSCLC
[16] = tested on: HOP-92 NSCLC
[17] = tested on: HS 578T breast
[18] = tested on: HT29 colon
[19] = tested on: IGROV1 ovarian
[20] = tested on: K-562 leukemia
[21] = tested on: KM12 colon
[22] = tested on: LOX IMVI melanoma
[23] = tested on: M14 melanoma
[24] = tested on: MALME-3M melanoma
[25] = tested on: MCF7 breast
[26] = tested on: MDA-MB-231 breast
[27] = tested on: MDA-MB-435
[28] = tested on: MDA-N
[29] = tested on: MOLT-4 leukemia
[30] = tested on: NCI-H226 lung
[31] = tested on: NCI-H23 lung
[32] = tested on: NCI-H460 lung
[33] = tested on: NCI-H522 lung
[34] = tested on: NCI/ADR-RES ovarian
[35] = tested on: OVCAR-3 ovarian
[36] = tested on: OVCAR-4 ovarian
[37] = tested on: OVCAR-5 ovarian
[38] = tested on: OVCAR-8 ovarian
[39] = tested on: PC-3 prostate
[40] = tested on: RPMI-8226 leukemia
[41] = tested on: RXF 393 renal
[42] = tested on: SF-268 CNS
[43] = tested on: SF-295 CNS
[44] = tested on: SF-539 CNS
[45] = tested on: SK-MEL-2 melanoma
[46] = tested on: SK-MEL-28 melanoma
[47] = tested on: SK-MEL-5 melanoma
[48] = tested on: SK-OV-3 ovarian
[49] = tested on: SN12C renal
[50] = tested on: SNB-19 CNS
[51] = tested on: SNB-75 CNS
[52] = tested on: SR leukemia
[53] = tested on: SW-620 colon
[54] = tested on: T-47D breast
[55] = tested on: TK-10 renal
[56] = tested on: U251 CNS
[57] = tested on: UACC-257 melanoma
[58] = tested on: UACC-62 melanoma
[59] = tested on: UO-31 renal

COc1ccc2[nH]c(C(=O)N3CC(CCl)c4ccc([N+](=O)[O-])cc43)cc2c1 (stereo not drawn)
TGI [1]: > 100 µM
TGI [2]: > 100 µM
TGI [3]: > 100 µM
TGI [4]: > 100 µM
TGI [5]: > 100 µM
TGI [6]: > 100 µM
TGI [7]: > 100 µM
TGI [8]: > 100 µM
TGI [9]: > 100 µM
TGI [10]: > 100 µM
TGI [11]: > 100 µM
TGI [12]: > 100 µM
TGI [13]: > 100 µM
TGI [14]: > 100 µM
TGI [15]: > 100 µM
TGI [16]: > 100 µM
TGI [17]: > 100 µM
TGI [18]: > 100 µM
TGI [19]: > 100 µM
TGI [20]: > 100 µM
TGI [21]: > 100 µM
TGI [22]: > 100 µM
TGI [23]: > 100 µM
TGI [24]: > 100 µM
TGI [25]: > 100 µM
TGI [26]: > 100 µM
TGI [27]: > 100 µM
TGI [28]: > 100 µM
TGI [29]: > 100 µM
TGI [30]: > 100 µM
TGI [31]: > 100 µM
TGI [32]: > 100 µM
TGI [33]: > 100 µM
TGI [34]: > 100 µM
TGI [35]: > 100 µM
TGI [36]: > 100 µM
TGI [37]: > 100 µM
TGI [38]: > 100 µM
TGI [39]: > 100 µM
TGI [40]: > 100 µM
TGI [41]: > 100 µM
TGI [42]: > 100 µM
TGI [43]: > 100 µM
TGI [44]: > 100 µM
TGI [45]: > 100 µM
TGI [46]: > 100 µM
TGI [47]: > 100 µM
TGI [48]: > 100 µM
TGI [49]: > 100 µM
TGI [50]: > 100 µM
TGI [51]: > 88.7 µM
TGI [52]: > 100 µM
TGI [53]: > 100 µM
TGI [54]: > 100 µM
TGI [55]: > 100 µM
TGI [56]: > 100 µM
TGI [57]: > 100 µM
TGI [58]: > 100 µM
TGI [59]: > 100 µM

Cc1ccccc1NC(=S)N/N=C(/c1ccccc1)c1ccccn1
TGI [1]: 10.8 µM
TGI [2]: 10.2 µM
TGI [3]: 11.8 µM
TGI [4]: 5.4 µM
TGI [5]: 18.5 µM
TGI [6]: 10.5 µM
TGI [7]: 11.6 µM
TGI [8]: 19.1 µM
TGI [9]: 18.3 µM
TGI [10]: 3.43 µM
TGI [11]: 14.3 µM
TGI [12]: 17.2 µM
TGI [13]: 15.8 µM
TGI [14]: 1.24 µM
TGI [15]: 11.5 µM
TGI [16]: 13.2 µM
TGI [17]: 31.2 µM
TGI [18]: 15.8 µM
TGI [19]: 15.3 µM
TGI [20]: 4.17 µM
TGI [21]: 14 µM
TGI [22]: 20.4 µM
TGI [23]: 1.91 µM
TGI [24]: 11.8 µM
TGI [25]: 15.3 µM
TGI [26]: 12.7 µM
TGI [27]: 14.2 µM
TGI [28]: 14.1 µM
TGI [29]: 3.98 µM
TGI [30]: 1.66 µM
TGI [31]: 21.5 µM
TGI [32]: 9.05 µM
TGI [33]: 3.4 µM
TGI [34]: 15.2 µM
TGI [35]: 10.5 µM
TGI [36]: 20.8 µM
TGI [37]: 10.6 µM
TGI [38]: 11.8 µM
TGI [39]: 13.6 µM
TGI [40]: 10.2 µM
TGI [41]: 12.3 µM
TGI [42]: 14.8 µM
TGI [43]: 8.7 µM
TGI [44]: 7.76 µM
TGI [45]: 6.9 µM
TGI [46]: 16.8 µM
TGI [47]: 3.93 µM
TGI [48]: 14.2 µM
TGI [49]: 10 µM
TGI [50]: 16.5 µM
TGI [51]: 17.4 µM
TGI [52]: > 21.2 µM
TGI [53]: 15.4 µM
TGI [54]: 12.4 µM
TGI [55]: 5.24 µM
TGI [56]: 12.1 µM
TGI [57]: 0.357 µM
TGI [58]: 17.1 µM
TGI [59]: 4.25 µM
